Test results published in patent US6596696B1, “Malto-oligosaccharide derivatives and uses thereof” (Kikkoman Corporation, priority 1999, dated 2003).
One block for each compound: values may come before it.

Key:
[1] = molecular target: T1, α-amylase derived from human pancreatic juice (HPA) (Homo sapiens, UniProt P04746); assay: In vitro amylase activity inhibition test, HPA (blue starch, Neo Amylase Test); type: biochemical; conditions: 37° C., 30 minutes, blue starch substrate
T1 construct: purchased International Reagents Corp. Japan Calibzyme AMY
T1 sequence (P04746 16-511): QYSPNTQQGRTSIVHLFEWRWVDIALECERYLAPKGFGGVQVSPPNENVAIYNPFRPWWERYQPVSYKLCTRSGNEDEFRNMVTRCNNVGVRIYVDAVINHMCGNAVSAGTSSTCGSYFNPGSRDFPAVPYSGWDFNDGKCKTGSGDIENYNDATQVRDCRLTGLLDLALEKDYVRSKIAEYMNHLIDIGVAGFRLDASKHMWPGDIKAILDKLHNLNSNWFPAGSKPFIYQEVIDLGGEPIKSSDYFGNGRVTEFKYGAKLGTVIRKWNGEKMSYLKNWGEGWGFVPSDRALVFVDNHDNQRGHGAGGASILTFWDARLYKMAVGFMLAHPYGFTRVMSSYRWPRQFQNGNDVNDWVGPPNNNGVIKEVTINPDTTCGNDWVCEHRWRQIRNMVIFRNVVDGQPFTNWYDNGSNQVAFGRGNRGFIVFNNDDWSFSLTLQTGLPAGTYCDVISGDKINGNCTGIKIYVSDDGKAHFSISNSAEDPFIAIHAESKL
Experimental: (§1) (1) Preparation of Human α-amylase Solution
(§2) Commercial HPA and HSA were dissolved in purified water to a concentration of 350 IU/1 to prepare an α-amylase solution. As commercial HPA and HSA, “Calibzyme AMY” (available from International Reagents Corp. Japan) was used. The α-amylase activity was determined according to the calibration curve of a commercial α-amylase determining reagent “Neo Amylase Test ┌FDAIICHI┘” (available from Daiichi Pure Chemicals Co., Ltd., Japan).
(§3) (2) Preparation of Inhibitor Solution
(§4) DOG2Az obtained in Example 1, GDOG2Az obtained in Example 2 and comparative G2Az (6^3-position non-modified maltoligosaccharide derivative disclosed in JP-A-9-278789) represented by the following formula
(§5) (3) were diluted with distilled water so that the final concentration would become 5 to 0.0001 mM. [drawing 4]
(§6) (3) Determination of Human α-amylase Inhibitory Activity (IC50) of Inhibitor Solution
(§7) 3.0 ml of distilled water, 1.0 ml of the inhibitor solution, Neo Amylase Test ┌DAIICHI┘ (produced by Daiichi Pure Chemicals Co., Ltd., Japan) and one tablet of blue starch were added to 100 μl of HPA or HSA solution, and the mixture was stirred by a mixer for about 10 seconds and then heated at 37° C. for 30 minutes. Thereafter, 1.0 ml of 0.5 N sodium hydroxide solution was added and the mixture was further stirred. Then the reaction was stopped, the solution was centrifuged (1,500 G, 5 minutes) and absorbance of the supernatant at 620 nm was measured. In blank, distilled water was used in place of the inhibitor solution. “IC50” indicates the final concentration (mM) of the inhibitor material required for inhibiting the activity of HPA or HSA solution by 50%.

[2] = molecular target: T2, α-amylase derived from human salivary gland (HSA) (Homo sapiens, UniProt P0DUB6); assay: In vitro amylase activity inhibition test, HSA (blue starch, Neo Amylase Test); type: biochemical; conditions: 37° C., 30 minutes, blue starch substrate
T2 construct: purchased International Reagents Corp. Japan Calibzyme AMY
T2 sequence (P0DUB6 16-511): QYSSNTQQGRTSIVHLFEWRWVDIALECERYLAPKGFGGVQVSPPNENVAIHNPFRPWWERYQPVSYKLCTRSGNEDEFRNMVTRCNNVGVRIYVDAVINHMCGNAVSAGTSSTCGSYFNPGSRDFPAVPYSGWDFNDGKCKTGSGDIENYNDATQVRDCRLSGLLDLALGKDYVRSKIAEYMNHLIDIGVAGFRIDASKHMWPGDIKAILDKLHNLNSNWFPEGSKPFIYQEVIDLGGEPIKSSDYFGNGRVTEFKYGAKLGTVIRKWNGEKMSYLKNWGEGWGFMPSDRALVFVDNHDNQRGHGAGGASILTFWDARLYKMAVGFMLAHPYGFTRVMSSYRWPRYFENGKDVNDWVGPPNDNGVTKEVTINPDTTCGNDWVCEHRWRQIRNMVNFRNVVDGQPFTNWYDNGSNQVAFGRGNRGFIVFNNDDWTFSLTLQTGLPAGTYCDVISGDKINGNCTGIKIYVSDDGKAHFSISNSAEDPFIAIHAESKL
Experimental: as §1, §2, §3, §4, §5, §6, §7

blood glucose level = assay: Anti-diabetic action: inhibition of rise of blood glucose level after corn starch intake in mice; type: in vivo, mice (Crj:CD-1(ICR)); conditions: for Significant test (t-test): P value, inhibition of rise of blood glucose level; for Blood glucose level before intake: mice fasted 20 hours, 0 min; for Blood glucose level before intake / Blood glucose level 30 minute after intake: n=5, in mg/dL (unit assumed); for Blood glucose level 30 minute after intake: 30 minutes
Experimental: Commercially available healthy mice (Crj:CD-1(ICR) with body weight of 20.5 to 26.0 g, bred by Japan Charles Liver Co., Ltd.), were used for the test.
The mice were divided into three groups (n=5). After left fasting for 20 hours, the mice of the compound-administered groups were forced to take orally DOG2Az, G2Az and corn starch as saccharide which was made into a liquid state with sterilized distilled water.
Blood was collected from the orbital vein of each mouse before and after the intake of the materials (0 and after 30 minutes), and the amount of glucose in blood was measured to determine the inhibitory effect against the rise of blood glucose level, i.e. anti-diabetic action of the compounds, after intake of corn starch. The inhibitory effect against the rise of blood glucose level was judged by t-test. Glucose concentration in blood was measured by a blood glucose level analyzer “ANTSENSE” (mfd. by Bayer Sankyo Ltd.).

SMILES: OCC1OC(OC2C(CO)OC(OC3C(O)CNCC(O)C3O)C(O)C2O)C(O)C(O)C1O (stereo not drawn) [Example G2Az, reference compound]
- IC50 [1]: 0.043 mM
- IC50 [2]: 0.082 mM
- Significant test (t-test) (blood glucose level; 60 mg/kg oral + corn starch 2,000 mg/kg): P < 1%
- Blood glucose level before intake (blood glucose level; group given 60 mg/kg oral + corn starch 2,000 mg/kg): 102 ± 21
- Blood glucose level 30 minute after intake (blood glucose level; mice, 60 mg/kg oral + corn starch 2,000 mg/kg): 169 ± 8

SMILES: C[C@H]1O[C@H](O[C@H]2[C@H](O)[C@@H](O)[C@@H](O[C@H]3[C@H](O)[C@@H](O)CNC[C@H]3O)O[C@@H]2CO)[C@H](O)[C@@H](O)[C@@H]1O[C@H]1O[C@H](CO)[C@@H](O)[C@H](O)[C@H]1O (hydrate or solvate) [GDOG2Az, (3R, 4R, 5R, 6S)-Hexahydro-3,5,6-trihydroxy-1H-azepine-4-yl O-(α-D-glucopyranosyl)-(1→4)-O-(6-deoxy-α-D-glucopyranosyl)-(1→4)-α-D-glucopyranoside]
- melting point: 144 to 146 °C (dec.)

SMILES: C[C@H]1O[C@H](O[C@H]2[C@H](O)[C@@H](O)[C@@H](O[C@H]3[C@H](O)[C@@H](O)CNC[C@H]3O)O[C@@H]2CO)[C@H](O)[C@@H](O)[C@@H]1O[C@H]1O[C@H](CO)[C@@H](O)[C@H](O)[C@H]1O [GDOG2Az, (3R, 4R, 5R, 6S)-Hexahydro-3,5,6-trihydroxy-1H-azepine-4-yl O-(α-D-glucopyranosyl)-(1→4)-O-(6-deoxy-α-D-glucopyranosyl)-(1→4)-α-D-glucopyranoside]
- IC50 [1]: 0.026 mM
- IC50 [2]: 0.028 mM

More lines, main results first:

- IC50 [1]: 0.024 mM
- IC50 [2]: 0.037 mM
SMILES: C[C@H]1O[C@H](O[C@H]2[C@H](O)[C@@H](O)[C@@H](O[C@H]3[C@H](O)[C@@H](O)CNC[C@H]3O)O[C@@H]2CO)[C@H](O)[C@@H](O)[C@@H]1O [DOG2Az, (3R, 4R, 5R, 6S)-Hexahydro-3,5,6-trihydroxy-1H-azepine-4-yl O-(6-deoxy-α-D-glucopyranosyl)-(1→4)-α-D-glucopyranoside]
- Significant test (t-test) (blood glucose level; 5 mg/kg oral + corn starch 2,000 mg/kg): P < 0.1%
- Blood glucose level before intake (blood glucose level; group given 5 mg/kg oral + corn starch 2,000 mg/kg): 101 ± 18
- Blood glucose level 30 minute after intake (blood glucose level; mice, 5 mg/kg oral + corn starch 2,000 mg/kg): 136 ± 23
- rise of blood glucose level in comparison with the control group (blood glucose level; mice, 5 mg/kg oral + corn starch 2,000 mg/kg, result in words): suppressed significantly

- melting point: 132 to 134 °C (dec.)
SMILES: C[C@H]1O[C@H](O[C@H]2[C@H](O)[C@@H](O)[C@@H](O[C@H]3[C@H](O)[C@@H](O)CNC[C@H]3O)O[C@@H]2CO)[C@H](O)[C@@H](O)[C@@H]1O (hydrate or solvate) [DOG2Az, (3R, 4R, 5R, 6S)-Hexahydro-3,5,6-trihydroxy-1H-azepine-4-yl O-(6-deoxy-α-D-glucopyranosyl)-(1→4)-α-D-glucopyranoside]
